≈ marks a conversion by molar mass, not a printed value.

The test system of data set [1] is P. Aeruginosa A5007. Put plainly: Acute mouse protection test. Particulars: mice infected i.p. with P. Aeruginosa A5007, observed 7 days; for SC (ED50): SC dosing at 1 and 5 hours post-infection; for Oral (ED50): oral dosing at 1 and 5 hours post-infection. The class given is in vivo.
Data set [2] has as its system E. Coli Juhl. The data set can be described thus: Acute mouse protection test. It is filed as in vivo. Particulars: mice infected i.p. with E. Coli JUHL, observed 7 days; for SC (ED50): SC dosing at 1 and 5 hours post-infection; for Oral (ED50): oral dosing at 1 and 5 hours post-infection.
The subject of data set [3] is Strep. pyogenes EES 61. The data set can be described thus: Second in vitro MIC test, Brain Heart Infusion Broth (BHIB). It is filed as cell-based.
Data set [4] deals with E. Coli Juhl. The description is as above. It is filed as cell-based.
The subject of data set [5] is Stap. Aureus CMX 553. The data set is described as above. It is filed as cell-based.
Data set [6] has as its system Ps. Aeruginosa A5007. The description is as above. It is filed as cell-based.
The test system of data set [7] is Stap. Aureus NCTC 10649. Put plainly: Acute mouse protection test. It is filed as in vivo. Particulars: mice infected i.p. with Stap. Aureus NCTC 10649, observed 7 days; for SC (ED50): SC dosing at 1 and 5 hours post-infection; for Oral (ED50): oral dosing at 1 and 5 hours post-infection.
Data set [8] is described as follows: Conversion of prodrug to parent drug in whole blood at 37° C. It is filed as in vitro ADME, Dog. The procedure:
An aqueous solution of prodrug (Z) is spiked into fresh whole blood containing sodium heparin as an anticoagulant. The sample is mixed gently by inversion and placed in a 37° waterbath. At selected time intervals an 0.5 ml aliquot of blood is removed and placed in a chilled 1.5 ml centrifuge tube (ice temperature). Samples are centrifuges at 13,000 rpm for two minutes to separate plasma. An 0.2 ml aliquot of the plasma sample is combined with 0.2 ml internal standard (7-(4-amino-2-methyl-1-pyrrolidinyl)-1-(2,4-difluorophenyl)-6-fluoro-1,4-d ihydro-4-oxo-1,8-naphthyridine-3-carboxylic acid in 0.2M sodium phosphate pH 7.2 buffer) and 6 mls CH2 Cl2 :EtoH (9:1 by volume). Samples are capped and shaken gently for 10 minutes. Samples are centrifuges at 2500 rpm for 10 minutes (4° C.). The aqueous layer is aspirated to waste and the organic layer is transferred to a conical centrifuge tube and evaporated to dryness with a stream of dry air and low heat ([…]). Samples are reconstituted with 0.2 ml mobile phase followed by vortexing. Samples are centrifuges at 2500 rpm for 10 minutes to separate precipitate. The supernatant is transferred to a WISP vial with plastic insert for HPLC analysis.

Take `NCC(=O)NC1CCN(c2nc3c(cc2F)c(=O)c(C(=O)O)cn3-c2ccc(F)cc2F)C1` (stereo not shown) [Example 7]: the “SC (ED50)” value turned out to be 4.2 mg/kg/day in data set [1], 0.3 mg/kg/day in [2] and 0.9 mg/kg/day in data set [7]. For the same compound, the “Oral (ED50)” value in [1] worked out at 11.4 mg/kg/day; in [2], 5.0 mg/kg/day; in [7], 2.4 mg/kg/day. The minimum inhibitory concentration (MIC) turned out to be 0.78 µg/mL (≈ 1.69 µM) in data set [3], 0.78 µg/mL (≈ 1.69 µM) in data set [4], 1.56 µg/mL (≈ 3.38 µM) in data set [5] and 12.5 µg/mL (≈ 27.1 µM) in [6].
Turning to `CC(N)C(=O)NC(Cc1ccccc1)C(=O)NC1CCN(c2nc3c(cc2F)c(=O)c(C(=O)O)cn3-c2ccc(F)cc2F)C1` (stereo not shown) [Example 11], the “Solubility pH 7.4” value is reported as 0.59 mg/ml. In data set [1], the “SC (ED50)” value was 9.7 mg/kg/day and the “Oral (ED50)” value is 65.3 mg/kg/day. For the same compound, the “Half Life Dog” value in data set [8] came to 10.4 m. This compound returned an MIC in [4] of 16 µg/mL (≈ 25.7 µM). This compound also registered a minimal inhibitory concentration (MIC) in [5] of 16.0 µg/mL (≈ 25.7 µM). In addition, the MIC in [6] came out at 128 µg/mL (≈ 206 µM). In addition, in [7], the “SC (ED50)” value is 0.7 mg/kg/day and the “Oral (ED50)” value is reported as 2.0 mg/kg/day.
For `CC(N)C(=O)NC1CCN(c2nc3c(cc2F)c(=O)c(C(=O)O)cn3-c2ccc(F)cc2F)C1` (stereo not shown) [Example 17], the “Solubility pH 7.4” value came to 0.12 mg/ml. Moreover, in data set [1], the “SC (ED50)” value was 5.7 mg/kg/day and the “Oral (ED50)” value is recorded as 12.5 mg/kg/day. Further, in [2], the “SC (ED50)” value is given as 0.4 mg/kg/day and the “Oral (ED50)” value is recorded as 2.0 mg/kg/day. For the same compound, the “Half Life Dog” value in data set [8] came to 97.0 s. The MIC in [4] was found to be 0.5 µg/mL (≈ 1.05 µM). The minimum inhibitory concentration (MIC) in data set [5] came to 2.0 µg/mL (≈ 4.21 µM). This compound gave an MIC in data set [6] of 16 µg/mL (≈ 33.7 µM). Also, in data set [7], the “SC (ED50)” value is recorded as 0.7 mg/kg/day and the “Oral (ED50)” value came out at 1.7 mg/kg/day.
On to `CSCCC(N)C(=O)NC1CCN(c2nc3c(cc2F)c(=O)c(C(=O)O)cn3-c2ccc(F)cc2F)C1` (stereo not shown) [Example 23], for which the results for the “SC (ED50)” value in data set [1] and in data set [7] were 3.1 mg/kg/day and 0.5 mg/kg/day, respectively. Moreover, the figures for the “Oral (ED50)” value in [1] and in data set [7] were 11.5 mg/kg/day and 1.5 mg/kg/day, respectively. Moreover, the MIC is 3.12 µg/mL (≈ 5.83 µM) in [3], 3.12 µg/mL (≈ 5.83 µM) in [4], 3.12 µg/mL (≈ 5.83 µM) in data set [5] and 5.0 µg/mL (≈ 9.34 µM) in data set [6]. The “Half Life Dog” value in [8] came to 99.1 s.
Regarding `CCC[C@H](NC(=O)CNC(=O)CN)C(=O)NC1CCN(c2nc3c(cc2F)c(=O)c(C(=O)O)cn3-c2ccc(F)cc2F)C1` (stereo partly shown) [Example 30], the “SC (ED50)” value in [1] amounted to 4.8 mg/kg/day; in data set [7] it was 0.7 mg/kg/day. The “Oral (ED50)” value worked out at 3.3 mg/kg/day in data set [1] and 2.2 mg/kg/day in data set [7]. In addition, the MIC in data set [3] was 100 µg/mL (≈ 162 µM); in data set [4], 25 µg/mL (≈ 40.5 µM); in [5], 25 µg/mL (≈ 40.5 µM); in [6], above 100 µg/mL.
Turning to `Cl.Cl.NCCCC[C@H](N)C(=O)NC1CCN(c2nc3c(cc2F)c(=O)c(C(=O)O)cn3-c2ccc(F)cc2F)C1` (stereo partly shown) [Example 46, 7-(3-Lys-amino-1-pyrrolidinyl)-1-(2,4-difluorophenyl)-6-fluoro-1,4-dihydro-4-oxo-1,8-naphthyridine-3-carboxylic acid dihydrochloride], the “SC (ED50)” value in data set [1] was 4.5 mg/kg/day; in [7], 0.7 mg/kg/day. The entries for the “Oral (ED50)” value in data set [1] and in [7] were 12.5 mg/kg/day and 3.4 mg/kg/day, respectively. Besides, the figures for the minimum inhibitory concentration (MIC) in data set [3], in data set [5] and in data set [6] were 100 µg/mL, 100 µg/mL and above 100 µg/mL, respectively. In addition, the “Half Life Dog” value in data set [8] is recorded as 46 m.

The record behind these values is patent publication US5057520A, “7-(peptidylpyrolidinyl)naphthyridine antibacterial compounds” (Abbott Laboratories, priority 1989, dated 1991).
